{"source": "patent US20200222474A1", "about": "“COMPOSITIONS AND METHODS FOR INCREASING PHYTOCHEMICAL BIOAVAILABLITY AND BIOACTIVITY” (North Carolina State University, priority 2017, published 2020)", "assay_type_in_all_cases": "cell-based, Lactobacillus acidophilus", "key": {"NCK2418 (ΔLBA0227)": {"system": "NCK2418 (ΔLBA0227)", "assay": "Phenotypic growth analysis of deletion mutant (PTS EIIC)", "details": "compared with background Δupp strain", "procedure": "(§1) Phenotypic growth assays were performed using 1% (v/v) overnight cultures of L. acidophilus strains (Table 2) and other Lactobacillus species (Table 3) grown on SDM supplemented with 1% (w/v) glucose to inoculate 200 μL of SDM supplemented with 1% (w/v) of the examined carbohydrate (0.5% in the case of esculin) in 96-well microplate wells (Corning Costar, Corning, N.Y., USA) in duplicate or triplicate wells, respectively. The microplates were sealed with clear adhesive film, incubated at 37° C. in a Fluostar Optima microplate reader (BMG Labtech, Cary, N.C., USA), and the cell optical density (OD600) was monitored for 30 hours.\n(§2) Construction of gene deletion mutants. The L. acidophilus NCFM genes LBA0225 and LBA0726, both encoding P-Bgl of glycoside hydrolase family 1 (GH1) enzymes in addition to the LBA0227 and LBA0725 genes encoding an EIIC and an EIICBA components of two PTS systems, respectively, were deleted using the upp-based counterselectable gene replacement system. Briefly, in-frame deletions were constructed by amplifying 650-750 bp of the up- and downstream flanking regions of the deletion targets with two primer pairs (e.g., LBA0225A/LBA0225B and LBA0225C/LBA0225D; Table 4). The resulting purified products were joined by splicing using overlap extension PCR (SOE-PCR63) and amplified to establish the deletion alleles. The SOE-PCR products, that include flanking restriction enzyme sites, were cloned within the BamHI and SacI/EcoRI sites of the pTRK935 integration vector and transformed into E. coli EC101. The resulting recombinant plasmids (pTRK1113-6) were confirmed by DNA sequencing and electroporated into L. acidophilus NCK1910 (Table 2) that contains the pTRK669 helper plasmid, and the recovery of the single- and double-crossover recombinants was performed as previously described. Recombinants carrying the new gene deletion alleles were isolated by colony PCR using primer pairs denoted up/down (e.g., LBA0225up/LBA0225down), which anneal to the flanking regions of the amplicons. Sequence integrity and in-frame deletions were verified by DNA sequencing employing the aforementioned primer pairs and primer denoted mid (e.g., LBA0225mid). The mutations were in-frame deletions of 90-96% of the coding regions.\n(§3) To establish the functional significance of these two loci, single deletions of each PTS EII and P-Bgl gene, and a double deletion of both P-Bgl genes were constructed using the upp-based counter-selectable gene replacement system (Table 2) and the growth phenotypes of the mutant strains were analyzed (FIG. 3). […]"}, "NCK2424 (ΔLBA0726)": {"system": "NCK2424 (ΔLBA0726)", "assay": "Phenotypic growth analysis of deletion mutant (phospho-β-glucosidase)", "details": "compared with background Δupp strain", "procedure": "as §1\nConstruction of gene deletion mutants. The L. acidophilus NCFM genes LBA0225 and LBA0726, both encoding P-Bgl of glycoside hydrolase family 1 (GH1) enzymes in addition to the LBA0227 and LBA0725 genes encoding an EIIC and an EIICBA components of two PTS systems, respectively, were deleted using the upp-based counterselectable gene replacement system. Briefly, in-frame deletions were constructed by amplifying 650-750 bp of the up- and downstream flanking regions of the deletion targets with two primer pairs (e.g., LBA0225A/LBA0225B and LBA0225C/LBA0225D; Table 4). The resulting purified products were joined by splicing using overlap extension PCR (SOE-PCR63) and amplified to establish the deletion alleles. The SOE-PCR products, that include flanking restriction enzyme sites, were cloned within the BamHI and SacI/EcoRI sites of the pTRK935 integration vector and transformed into E. coli EC101. […]\nas §3"}, "NCK2422 (ΔLBA0725)": {"system": "NCK2422 (ΔLBA0725)", "assay": "Phenotypic growth analysis of deletion mutant (PTS EIICBA)", "procedure": "as §1, §2\nTo establish the functional significance of these two loci, single deletions of each PTS EII and P-Bgl gene, and a double deletion of both P-Bgl genes were constructed using the upp-based counter-selectable gene replacement system (Table 2) and the growth phenotypes of the mutant strains were analyzed (FIG. 3). Phenotypic growth analyses of deletion mutants of EII PTS transporters (FIGS. 3A, 3C, 3E, 3G, and 3I) and phospho-β-glucosidase (FIGS. 3B, 3D, 3F, 3H, and 3J) on the β-glucosides esculin, salicin, amygdalin and the disaccharides gentiobiose and cellobiose. The background Aupp strain is shown as a grey fill graph and the growth of the mutant strains is shown as: PTS EIIC (LBA0227, pink triangle), the phospho-β-glucosidase (LBA0225, light blue triangles), the PTS EIICBA (LBA0725, yellow squares), the second phospho-β-glucosidase (LBA0726, lilac squares) and the double phospho-β-glucosidase mutant (LBA0225/LBA0726, black stars). The color scheme is consistent with that used for the gene loci in FIG. 2."}}}
{"substance": "gentiobiose [reference compound]", "values": [{"measurement": "growth of the ΔLBA0227 mutant (inactive EIIC)", "setting": "NCK2418 (ΔLBA0227)", "value": "abolished"}, {"measurement": "growth of the ΔLBA0726 mutant (P-Bgl)", "setting": "NCK2424 (ΔLBA0726)", "value": "unaffected"}, {"measurement": "reduction of growth on inactivation of the EIICBA (LBA0725)", "setting": "NCK2422 (ΔLBA0725)", "value": "about 50%"}, {"measurement": "growth of the ΔLBA0725 mutant (inactive PTS EIICBA)", "setting": "NCK2422 (ΔLBA0725); compared with background Δupp strain", "value": "moderately reduced"}]}
